In patent publication US20260138961A1, “MODULATORS OF MITOCHONDRIAL DNA REPLICATION” (Pretzel Therapeutics, Inc., priority 2022, published 2026):

molecular target: T1, POLγA:A467T (Homo sapiens, UniProt P54098, A467T); assay: DNA polymerization assay, POLγA:A467T mutant; type: biochemical; settings: stimulation of polymerase activity, primed M13mp18 ssDNA, 37° C. 2 hours; read-out: A467T AC50
T1 sequence (P54098 1-1239 A467T): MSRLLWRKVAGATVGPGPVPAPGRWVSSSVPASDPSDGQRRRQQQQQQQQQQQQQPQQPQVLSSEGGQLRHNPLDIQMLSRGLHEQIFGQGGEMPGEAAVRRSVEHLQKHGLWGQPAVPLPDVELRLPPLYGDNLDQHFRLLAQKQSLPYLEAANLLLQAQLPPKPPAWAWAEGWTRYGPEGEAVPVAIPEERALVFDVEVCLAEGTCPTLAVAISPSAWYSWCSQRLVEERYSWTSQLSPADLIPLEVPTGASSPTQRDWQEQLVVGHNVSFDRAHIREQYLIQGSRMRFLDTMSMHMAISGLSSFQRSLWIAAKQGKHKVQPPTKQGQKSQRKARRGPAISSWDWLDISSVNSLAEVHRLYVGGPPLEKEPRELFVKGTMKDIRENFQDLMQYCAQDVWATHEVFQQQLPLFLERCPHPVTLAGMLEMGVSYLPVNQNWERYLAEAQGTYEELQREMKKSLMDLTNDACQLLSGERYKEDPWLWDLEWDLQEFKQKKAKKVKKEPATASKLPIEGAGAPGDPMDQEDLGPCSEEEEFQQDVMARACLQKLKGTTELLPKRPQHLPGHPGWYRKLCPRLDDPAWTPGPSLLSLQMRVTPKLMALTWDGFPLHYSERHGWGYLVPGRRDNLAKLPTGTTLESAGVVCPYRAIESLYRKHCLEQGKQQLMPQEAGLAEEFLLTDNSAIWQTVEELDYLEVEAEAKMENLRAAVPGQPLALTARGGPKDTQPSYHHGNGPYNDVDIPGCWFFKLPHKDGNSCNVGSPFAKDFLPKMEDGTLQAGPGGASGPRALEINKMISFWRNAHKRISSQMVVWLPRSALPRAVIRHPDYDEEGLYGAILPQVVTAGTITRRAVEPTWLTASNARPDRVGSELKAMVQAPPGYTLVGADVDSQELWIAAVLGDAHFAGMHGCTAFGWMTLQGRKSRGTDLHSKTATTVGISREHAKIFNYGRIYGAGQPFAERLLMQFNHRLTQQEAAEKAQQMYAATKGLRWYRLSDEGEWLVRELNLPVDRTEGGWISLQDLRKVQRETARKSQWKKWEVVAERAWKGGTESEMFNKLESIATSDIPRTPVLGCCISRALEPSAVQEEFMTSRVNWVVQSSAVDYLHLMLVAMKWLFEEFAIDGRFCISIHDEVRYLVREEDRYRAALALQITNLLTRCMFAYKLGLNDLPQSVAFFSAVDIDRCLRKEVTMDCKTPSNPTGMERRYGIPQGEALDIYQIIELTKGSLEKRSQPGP
T1 sequence (Q9UHN1 1-485 partner): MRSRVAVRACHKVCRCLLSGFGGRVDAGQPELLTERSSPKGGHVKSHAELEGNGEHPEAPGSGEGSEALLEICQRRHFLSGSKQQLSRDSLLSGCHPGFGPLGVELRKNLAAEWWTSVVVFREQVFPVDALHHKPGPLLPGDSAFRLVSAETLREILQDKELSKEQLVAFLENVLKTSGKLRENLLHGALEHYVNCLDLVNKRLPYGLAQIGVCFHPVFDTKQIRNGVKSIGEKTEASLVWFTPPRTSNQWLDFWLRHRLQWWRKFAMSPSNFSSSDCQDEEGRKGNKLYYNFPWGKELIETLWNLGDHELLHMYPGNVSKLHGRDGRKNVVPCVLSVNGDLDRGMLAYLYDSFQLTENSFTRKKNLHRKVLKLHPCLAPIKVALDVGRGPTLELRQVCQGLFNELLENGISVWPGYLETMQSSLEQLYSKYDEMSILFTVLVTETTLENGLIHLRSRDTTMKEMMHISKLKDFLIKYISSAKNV

First: Cc1cc(S(=O)(=O)Nc2ccc3ccn(C)c3c2)c(C)cc1Cl [Example 72, 4-chloro-2,5-dimethyl-N-(1-methyl-1H-indol-6-yl)benzenesulfonamide]
Second: Cc1nc2ccc(NS(=O)(=O)c3cc(C)c(Cl)cc3C)cc2s1 [Example 73, 4-chloro-2,5-dimethyl-N-(2-methylbenzo[d]thiazol-6-yl)benzenesulfonamide]
The AC50 of the first is 2.3-fold higher: 37 µM for the first, 16 µM for the second.

Going from `Cc1cc(S(=O)(=O)Nc2ccc3nc(-c4ccccc4)sc3c2)c(C)cc1Cl` [Example 74, 4-chloro-2,5-dimethyl-N-(2-phenylbenzo[d]thiazol-6-yl)benzenesulfonamide] to `Cc1cc(S(=O)(=O)Nc2csc(-c3ccccc3)n2)c(C)cc1Cl` [Example 81, 4-chloro-2,5-dimethyl-N-(2-phenylthiazol-4-yl)benzenesulfonamide], the AC50 falls from greater than 100 µM to 3 µM.

`Cc1nc2cc(NS(=O)(=O)c3cc(C)c(Cl)cc3C)ccc2o1` [Example 75, 4-chloro-2,5-dimethyl-N-(2-methylbenzo[d]oxazol-5-yl)benzenesulfonamide] and `Cc1nc2cccc(NS(=O)(=O)c3cc(C)c(Cl)cc3C)c2s1` [Example 85, 4-chloro-2,5-dimethyl-N-(2-methylbenzo[d]thiazol-7-yl)benzenesulfonamide] cannot be ordered by AC50: greater than 100 µM for the first, greater than 100 µM for the second.

Going from `Cc1cc(S(=O)(=O)Nc2cccc(-c3ncc(C4CC4)s3)c2)c(C)cc1Cl` [Example 76, 4-chloro-N-(3-(5-cyclopropylthiazol-2-yl)phenyl)-2,5-dimethylbenzenesulfonamide] to `Cc1cc(S(=O)(=O)Nc2cccc(-c3ncc(CO)s3)c2)c(C)cc1Cl` [Example 89, 4-chloro-N-(3-(5-(hydroxymethyl)thiazol-2-yl)phenyl)-2,5-dimethylbenzenesulfonamide], the AC50 rises from 3 µM to 8 µM (2.7-fold).

`Cc1cc(S(=O)(=O)Nc2ccccc2-c2ncco2)c(C)cc1Cl` [Example 77, 4-chloro-2,5-dimethyl-N-(2-(oxazol-2-yl)phenyl)benzenesulfonamide] and `Cc1cnc(-c2ccccc2NS(=O)(=O)c2cc(C)c(Cl)cc2C)s1` [Example 79, 4-chloro-2,5-dimethyl-N-(2-(5-methylthiazol-2-yl)phenyl)benzenesulfonamide] cannot be ordered by AC50: greater than 100 µM for the first, greater than 100 µM for the second.

`Cc1cnc(-c2cccc(S(=O)(=O)Nc3cc(C)c(Cl)cc3C)c2)s1` [Example 78, N-(4-chloro-2,5-dimethylphenyl)-3-(5-methylthiazol-2-yl)benzenesulfonamide] and `Cc1cnc(-c2ccc(NS(=O)(=O)c3cc(C)c(Cl)cc3C)cc2)s1` [Example 83, 4-chloro-2,5-dimethyl-N-(4-(5-methylthiazol-2-yl)phenyl)benzenesulfonamide] cannot be ordered by AC50: greater than 100 µM for the first, greater than 100 µM for the second.

`Cc1csc(-c2ccccc2NS(=O)(=O)c2cc(C)c(Cl)cc2C)n1` [Example 80, 4-chloro-2,5-dimethyl-N-(2-(4-methylthiazol-2-yl)phenyl)benzenesulfonamide] and `Cc1cc(S(=O)(=O)Nc2cc(-c3ccccc3)no2)c(C)cc1Cl` [Example 84, 4-chloro-2,5-dimethyl-N-(3-phenylisoxazol-5-yl)benzenesulfonamide] cannot be ordered by AC50: greater than 100 µM for the first, greater than 100 µM for the second.

`Cc1cc(S(=O)(=O)NC2CCOc3c(Cl)cccc32)c(C)cc1Cl` (stereo not shown) [Example 82, 4-chloro-N-(8-chlorochroman-4-yl)-2,5-dimethylbenzenesulfonamide] and `Cc1cc(S(=O)(=O)Nc2cccc(-c3ncc(C(=O)O)s3)c2)c(C)cc1Cl` [Example 90, 2-(3-((4-chloro-2,5-dimethylphenyl)sulfonamido)phenyl) thiazole-5-carboxylic acid] cannot be ordered by AC50: greater than 100 µM for the first, greater than 100 µM for the second.

`Cc1cc(S(=O)(=O)Nc2ccc(-c3ncc(CN(C)C)s3)cc2)c(C)cc1Cl` [Example 86, 4-chloro-N-(4-(5-((dimethylamino)methyl)thiazol-2-yl)phenyl)-2,5-dimethylbenzenesulfonamide] and `COC(=O)c1cnc(-c2cccc(NS(=O)(=O)c3cc(C)c(Cl)cc3C)c2)s1` [Example 88, methyl 2-(3-((4-chloro-2,5-dimethylphenyl)sulfonamido)phenyl) thiazole-5-carboxylate] cannot be ordered by AC50: greater than 100 µM for the first, greater than 100 µM for the second.

`Cc1cc(S(=O)(=O)Nc2cccc(C(=O)N3CCCN(C(=O)C(C)C)CC3)c2)c(C)cc1Cl` [Example 91, 4-chloro-N-(3-(4-isobutyryl-1,4-diazepane-1-carbonyl)phenyl)-2,5-dimethylbenzenesulfonamide] showed an AC50 greater than 100 µM.
